Data published in ChEMBL document CHEMBL4257492, “Discovery of 2-aminoimidazole and 2-amino imidazolyl-thiazoles as non-xanthine human adenosine A3 receptor antagonists: SAR and molecular modeling studies” (Medchemcomm, 2018).
The source made the active and inactive calls. No cut-off for these calls is given here.

What was measured:
Adenosine receptor A1 = target: T1, Adenosine receptor A1 (Homo sapiens, UniProt P30542); experiment: (§1) Displacement of [3H]CCPA from recombinant human A1 receptor expressed in CHO cell membranes
T1 sequence (P30542 whole entry): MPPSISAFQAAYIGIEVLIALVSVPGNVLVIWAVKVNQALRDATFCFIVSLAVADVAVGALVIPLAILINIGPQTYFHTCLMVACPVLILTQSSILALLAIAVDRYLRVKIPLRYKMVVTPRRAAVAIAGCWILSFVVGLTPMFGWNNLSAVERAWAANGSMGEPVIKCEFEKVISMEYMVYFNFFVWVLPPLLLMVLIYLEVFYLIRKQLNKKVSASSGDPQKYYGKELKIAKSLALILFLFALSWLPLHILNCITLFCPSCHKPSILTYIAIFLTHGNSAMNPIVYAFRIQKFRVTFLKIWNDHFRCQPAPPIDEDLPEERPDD

Adenosine receptor A3 = target: T2, Adenosine receptor A3 (Homo sapiens, UniProt P0DMS8); experiment: (§2) Displacement of [3H]HEMADO from recombinant human A3 receptor expressed in CHO cell membranes
T2 sequence (P0DMS8 whole entry): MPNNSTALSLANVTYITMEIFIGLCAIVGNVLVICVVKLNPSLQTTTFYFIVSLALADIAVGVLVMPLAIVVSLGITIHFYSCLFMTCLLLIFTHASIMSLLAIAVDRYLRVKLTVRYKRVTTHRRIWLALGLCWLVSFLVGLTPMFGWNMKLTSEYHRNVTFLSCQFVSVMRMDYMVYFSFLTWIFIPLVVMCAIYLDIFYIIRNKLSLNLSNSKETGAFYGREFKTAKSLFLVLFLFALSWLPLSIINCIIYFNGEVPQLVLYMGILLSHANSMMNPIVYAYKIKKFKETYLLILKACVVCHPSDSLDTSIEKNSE

Adenosine receptor A2a = Adenosine receptor A2a (Homo sapiens, UniProt P29274); experiment: Displacement of [3H]NECA from recombinant human A2A receptor expressed in CHO cell membranes
Adenosine receptor A2b = target: T3, Adenosine receptor A2b (Homo sapiens, UniProt P29275); experiment: Antagonist activity at recombinant human A2B receptor expressed in CHO cell membranes assessed as inhibition of NECA-stimulated adenylyl cyclase activity; type: functional, cell-based
T3 sequence (P29275 whole entry): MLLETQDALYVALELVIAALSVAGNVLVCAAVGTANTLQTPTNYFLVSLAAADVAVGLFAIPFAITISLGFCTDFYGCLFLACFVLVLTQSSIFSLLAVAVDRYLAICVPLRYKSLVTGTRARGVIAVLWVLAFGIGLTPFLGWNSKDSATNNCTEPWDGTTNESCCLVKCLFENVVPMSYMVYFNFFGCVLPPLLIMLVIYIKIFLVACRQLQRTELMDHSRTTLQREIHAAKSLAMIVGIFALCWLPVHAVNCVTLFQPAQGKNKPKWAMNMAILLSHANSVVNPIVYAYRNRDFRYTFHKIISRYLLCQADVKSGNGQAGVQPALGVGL

Homo sapiens [1] = species: Homo sapiens; experiment: Selectivity ratio of Ki for displacement of [3H]CCPA from recombinant human A1 receptor expressed in CHO cell membranes to displacement of [3H]HEMADO from recombinant human A3 receptor expressed in CHO cell membranes
Homo sapiens [2] = species: Homo sapiens; experiment: Selectivity ratio of Ki for displacement of [3H]NECA from recombinant human A2A receptor expressed in CHO cell membranes to displacement of [3H]HEMADO from recombinant human A3 receptor expressed in CHO cell membranes
[3] = target: T4, Adenosine receptor A1 (Homo sapiens) (UniProt P30542); experiment: as §1
T4 sequence (whole entry): T1 sequence (P30542 whole entry)

[4] = target: T5, Adenosine receptor A2b (Homo sapiens) (UniProt P29275); experiment: Antagonist activity at recombinant human A2B receptor expressed in CHO cell membranes assessed as inhibition of NECA-stimulated adenylyl cyclase activity up to 30 uM; type: functional, cell-based
T5 sequence (whole entry): T3 sequence (P29275 whole entry)

[5] = target: T6, Adenosine receptor A3 (Homo sapiens) (UniProt P0DMS8); experiment: as §2
T6 sequence (whole entry): T2 sequence (P0DMS8 whole entry)

Sequence of Adenosine receptor A2a (P29274 whole entry): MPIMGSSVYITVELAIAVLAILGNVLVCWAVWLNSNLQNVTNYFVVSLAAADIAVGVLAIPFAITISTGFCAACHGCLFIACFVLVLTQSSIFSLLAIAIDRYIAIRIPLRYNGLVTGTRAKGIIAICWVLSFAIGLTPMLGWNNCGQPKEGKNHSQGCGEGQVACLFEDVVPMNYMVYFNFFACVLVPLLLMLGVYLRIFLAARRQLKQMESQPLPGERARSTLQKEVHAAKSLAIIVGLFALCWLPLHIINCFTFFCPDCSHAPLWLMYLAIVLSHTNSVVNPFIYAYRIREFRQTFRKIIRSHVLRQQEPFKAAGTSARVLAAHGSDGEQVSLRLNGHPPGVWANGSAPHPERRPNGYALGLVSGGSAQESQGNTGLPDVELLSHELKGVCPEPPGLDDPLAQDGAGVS

Structure (SMILES) | Ki (Adenosine receptor A1) [µM] | Ki (Adenosine receptor A3) [µM] | Ki (Adenosine receptor A2a) [µM] | Ki (Adenosine receptor A2b) [µM] | inhibition [3] | inhibition [4] | inhibition [5] | Ratio Ki (Homo sapiens [1]) | Ratio Ki (Homo sapiens [2])
Nc1ncc(C(=O)c2ccc(Cl)cc2)n1-c1ccc(C(F)(F)F)cc1 |  |  |  |  | inactive | inactive | Active |  | 
CS(=O)(=O)c1ccc(C(=O)c2cnc(N)n2-c2ccccc2)cc1 |  |  |  |  | inactive | inactive | Active |  | 
Cc1ccc(C(=O)c2cnc(N)n2-c2ccc(F)cc2)cc1 |  |  |  |  | inactive | inactive | inactive |  | 
COc1ccc(-n2c(C(=O)c3sc(N4CCOCC4)nc3-c3ccccc3)cnc2N)cc1 | > 100 | 13 | > 100 | > 10 |  |  |  |  | 
Cc1ccc(C(=O)c2cnc(N)n2-c2cccc(Cl)c2)cc1 |  |  |  |  | inactive | inactive | Active |  | 
Cc1ccc(C(=O)c2cnc(N)n2-c2ccccc2Cl)cc1 |  |  |  |  | inactive | inactive | Active |  | 
COc1ccc(C(=O)c2cnc(N)n2-c2ccc(F)cc2)cc1 |  |  |  |  | inactive | inactive | inactive |  | 
Nc1ncc(C(=O)c2ccc(Cl)cc2)n1-c1ccc(F)c(Cl)c1 |  |  |  |  | inactive | inactive | Active |  | 
Nc1ncc(C(=O)c2ccncc2)n1-c1ccc(F)cc1 |  |  |  |  | inactive | inactive |  |  | 
Nc1ncc(C(=O)c2ccncc2)n1-c1ccc(C(F)(F)F)cc1 |  |  |  |  | inactive | inactive |  |  | 

Further lines, with some results ahead:

Ki (Adenosine receptor A1) [µM] | Ki (Adenosine receptor A3) [µM] | Ki (Adenosine receptor A2a) [µM] | Ki (Adenosine receptor A2b) [µM] | inhibition [3] | inhibition [4] | inhibition [5] | Structure (SMILES) | Ratio Ki (Homo sapiens [1]) | Ratio Ki (Homo sapiens [2])
37.5 | 0.487 | 12.4 | > 10 |  |  |  | Cc1ccc(Nc2nc(C)c(C(=O)c3cnc(N)n3-c3ccc(F)cc3)s2)cc1 | 20 to 40 | 20 to 40
33.5 | 0.802 | 11.2 | > 10 |  |  |  | Cc1nc(Nc2ccccc2)sc1C(=O)c1cnc(N)n1-c1ccc(Cl)cc1 |  | 
> 100 | 17.8 | 34 | > 10 |  |  |  | Cc1ccc(-n2c(C(=O)c3sc(N4CCOCC4)nc3-c3ccccc3)cnc2N)cc1 |  | 
 |  |  |  | inactive | inactive | inactive | Cc1ccc(C(=O)c2cnc(N)n2-c2ccc(Cl)cc2)cc1 |  | 
3.67 | 0.326 | 8.84 | > 10 |  |  |  | COc1ccc(-n2c(C(=O)c3sc(Nc4ccccc4)nc3-c3ccccc3)cnc2N)cc1 |  | 
19.7 | 4.92 | 16.7 | > 10 |  |  |  | CN(C)c1nc(NC(=O)c2ccccc2)sc1C(=O)c1cnc(N)n1-c1ccc(C(F)(F)F)cc1 |  | 
39.2 | 0.19 | 8.04 | > 10 |  |  |  | Cc1nc(Nc2ccccc2)sc1C(=O)c1cnc(N)n1-c1ccc(F)cc1 | 200 | 40
6.71 | 0.305 | 7.41 | > 10 |  |  |  | Nc1ncc(C(=O)c2sc(Nc3ccccc3)nc2-c2ccccc2)n1-c1ccc(F)cc1 | 20 to 40 | 20 to 40
25.4 | 4.32 | 11.8 | > 10 |  |  |  | CN(C)c1nc(NC(=O)c2ccccc2)sc1C(=O)c1cnc(N)n1-c1ccc(Cl)cc1 |  | 
 |  |  |  | inactive | inactive | inactive | Nc1ncc(C(=O)c2ccc(Cl)cc2)n1-c1ccc(F)cc1 |  | 
33.3 | 1.6 | 10.3 | > 10 |  |  |  | COc1ccc(-n2c(C(=O)c3sc(Nc4ccc(Cl)cc4)nc3C)cnc2N)cc1 |  | 
48.6 | 0.574 | 13.4 | > 10 |  |  |  | COc1ccc(-n2c(C(=O)c3sc(Nc4ccccc4)nc3C)cnc2N)cc1 | 20 to 40 | 20 to 40
 |  |  |  | inactive | inactive | Active | Nc1ncc(C(=O)c2ccncc2)n1-c1ccc(Cl)cc1 |  | 
19.8 | 0.871 | 13 | > 10 |  |  |  | Cc1nc(Nc2ccc(Cl)cc2)sc1C(=O)c1cnc(N)n1-c1ccc(F)cc1 |  | 
